We go through seven compounds from patent US20070161611A1, “POLYCYCLIC PHENOLIC COMPOUNDS AND USE IN TREATING VIRAL INFECTIONS” (priority 2005, published 2007).

Where two headings read alike, the source gives them in different places.

The nature of data set [1]: in vitro. It counts as cell-based. The settings on record: bovine. The method, then:
Cell proliferation was monitored using a non-radioactive MTS/PMS assay (MTS: 3-(4,5-dimethylthiazol-2-yl)-5-(3-carboxymethoxy phenyl)-2-(4-sulfophenyl)-2H-tetrazolium (Promega, Madison, Wis.)); (PMS: phenazine methosulfate (Sigma Aldrich, St. Louis, Mo.)). MDBK cells were seeded into 96-well plates at a density of approximately 2×10^4 cells per well. The cultures were incubated 3-24 hours to permit attachment of the cells to the plates prior to infection and addition of compounds. […] A 96-well microtiter spectrophotometer plate reader was used to measure the absorbance at 490 nm after incubation of the 96-well plate for 1 to 4 hours at 37° C. in a humidified, 5% CO2 atmosphere. The mean absorbance in each set of triplicate wells was determined. Antiviral activity was measured as MTS conversion relative to the differential between the conversion for cell (non-infected) and viral (non-drug-treated) controls. The cytopathic effect (CPE) reduction for each concentration of the tested compound, which correlated with antiviral activity, was calculated as follows. % CPE reduction=[(D−ND)/(NI−ND)]×100, where D (drug-treated)=the absorbance of drug-treated cells; ND (non drug-treated)=the absorbance of untreated infected cells; and NI (non-infected)=the absorbance of non-infected cells. […]

A short description of data set [2]: Toxicity in AVA5 replicon cells (neutral red dye uptake). The settings on record: human, AVA5 cells (HCV RNA-replicating, Huh7-derived). How it is done: The antiviral activity of test compounds were assayed in the stably HCV RNA-replicating cell line, AVA5, derived by transfection of the human hepatoblastoma cell line, Huh7 (Blight, et al., 2000, Science 290: 1972). […] Intracellular HCV RNA levels and cytotoxicity were assessed 24 hours after the last dose of compound.
Assays were conducted using 4-5 doses of test compound. […] HCV RNA levels were assessed 24 hours after the last dose of compound using a dot blot hybridization assay. Both HCV and β-actin RNA levels in triplicate treated cultures were expressed as a percentage of the mean levels of RNA detected in untreated cultures (6 total). β-Actin RNA levels were used both as a measure of toxicity, and to normalize the amount of cellular RNA in each sample. Toxicity analyses were performed on separate plates from those used for the antiviral assays. Cells for the toxicity analyses were cultured and treated with test compounds with the same schedule and under identical culture conditions as used for the antiviral evaluations. Uptake of neutral red dye was used to determine the relative level of toxicity 24 hours following the last treatment. The absorbance of internalized dye at 510 nm (A510) was used for the quantitative analysis. Values in test cultures were compared to 9 cultures of untreated cells maintained on the same plate as the test cultures.

Another data set has as its system BVDV-NADL. Description: Protection of MDBK cells from BVDV-induced cytopathicity (MTS/PMS CPE reduction assay). It counts as cell-based. The settings on record: Bovine viral diarrhea virus isolates and strains. How it is done:
Cell proliferation was monitored using a non-radioactive MTS/PMS assay (MTS: 3-(4,5-dimethylthiazol-2-yl)-5-(3-carboxymethoxy phenyl)-2-(4-sulfophenyl)-2H-tetrazolium (Promega, Madison, Wis.)); (PMS: phenazine methosulfate (Sigma Aldrich, St. Louis, Mo.)). MDBK cells were seeded into 96-well plates at a density of approximately 2×10^4 cells per well. The cultures were incubated 3-24 hours to permit attachment of the cells to the plates prior to infection and addition of compounds. The appropriate PFU of BVDV-NADL were added to each well to achieve the desired MOI (<1 or >0.001); the cells were exposed to the virus diluted at the appropriate concentration in phosphate buffered saline (PBS) containing 1% horse serum (HS) for 1 to 2 hours. The virus was then removed and the cells were washed with PBS containing 1% HS. The test compounds were serially diluted in cell growth media with 2% HS and added to the cells. The plates were incubated at 37° C. in the presence of 5% CO2 for 3-4 days. Uninfected cells and infected, untreated cells (without compound) were used as additional controls. The final volume was 100 μl per well. After the 3-4 days of incubation a volume of 20 μL of the combined MTS/PMS solution was added into each well of the 96-well assay plate containing 100 μL of cells in culture medium to obtain final concentrations of 333 μg/ml MTS 5 and 25 μM PMS. A 96-well microtiter spectrophotometer plate reader was used to measure the absorbance at 490 nm after incubation of the 96-well plate for 1 to 4 hours at 37° C. in a humidified, 5% CO2 atmosphere. The mean absorbance in each set of triplicate wells was determined. Antiviral activity was measured as MTS conversion relative to the differential between the conversion for cell (non-infected) and viral (non-drug-treated) controls. The cytopathic effect (CPE) reduction for each concentration of the tested compound, which correlated with antiviral activity, was calculated as follows. % CPE reduction=[(D−ND)/(NI−ND)]×100, where D (drug-treated)=the absorbance of drug-treated cells; ND (non drug-treated)=the absorbance of untreated infected cells; and NI (non-infected)=the absorbance of non-infected cells. EC50 represents the concentration of drug that protects 50% of the cells from BVDV induced cytotoxicity (50% CPE reduction). CC50 equals the concentration that affects the viability of 50% of the MDBK cells.
The compounds were combined at fixed molar ratios and serially diluted 2-fold in cell growth medium to examine a range of 6 fixed ratio combinations including those having about an equipotent antiviral dose to a combination in which one test compound was used at a sub-optimal level (e.g., sub-therapeutic).
On the technique in general: Cytopathic effects are the visible damage that an infection or toxin causes in cultured cells.

In data set [3] the test system is HCV sub-genomic replicon genotype 1b. Put plainly: HCV sub-genomic replicon assay in AVA5 cells (HCV RNA dot blot hybridization). It counts as cell-based, Hepatitis C Virus. The settings on record: for SI (Selectivity Index): HCV replicon genotype 1b; for EC50: Hepatitis C virus, AVA5 cells, once daily for three days, HCV RNA 24 h after last dose.
Another data set relates to HIV-1RF. Put plainly: Anti-HIV-1 activity in CEM-SS cells (inhibition of HIV-1 induced cytotoxicity). The settings on record: Human immunodeficiency virus 1, CEM-SS; for EC50: read-out: CEM-SS/HIV-1RF EC50.
Data set [4] can be described thus: in vitro. The settings on record: human.
The next data set has as its system CEM-SS cells. Description: Cytotoxicity in CEM-SS cells. The settings on record: at 300 μM.
Data set [5] has as its system non-cytopathic BVDV Pe515. Description: Non-cytopathic BVDV genomic RNA reduction in MDBK cells (qRT-PCR). It counts as cell-based. The settings on record: Bovine viral diarrhea virus isolates and strains, 72 h, MOI 0.001, three day treatment, FIG. 1, read-out: EC50 of ncp BVDV genomic replication. How it is done:
MDBK cells were seeded into 6-or 96-well plates at a density of approximately 2×10^4 cells per well. The cultures were incubated 3-24 hours to permit attachment of the cells to the plates prior to infection and addition of compounds. The appropriate number of non-cytopathic BVDV Pe515 (ncp BVDV) PFU were added to each well to achieve the desired MOI (0.001); the cells were contacted with the virus diluted at the appropriate concentration in PBS containing 1% HS and 1 mM MgCl2 for 1 to 2 hours. The test compounds dissolved in cell growth media with 2% HS were added to the cells at varying concentrations. The plates were incubated at 37° C. in the presence of 5% CO2 for 3-4 days. […] Real-time quantitation was done using the Quantitative One Step Reverse Transcriptase (RT) Polymerase Chain Reaction (qRT-PCR) MasterMix Plus for SYBR® Green I (Eurogentec, San Diego, calif.). […] The following primers were used for the one step RT-PCR SYBR quantitation assay: forward primer 5′-[…]-3′ (SEQ ID NO:1) and reverse primer 5′-[…]-3′ (SEQ ID NO:2). […] Well-to-well variations in background fluorescence were corrected for by use of a ROX-labeled passive reference, included as part of the Eurogentec One Step qRT-PCR Master Mix for each sample. Amplification curves were analyzed by using empirically established cycle threshold and baseline settings for the assay. […]
On the technique in general: In qPCR the cycle at which signal appears reflects the starting amount.

For a further data set, the system named is BVDV strain NADL. Put plainly: Inhibition of viral release in BVDV-infected MDBK cells (plaque titration of supernatant). It counts as cell-based, Bovine Viral Diarrhea virus. The settings on record: 24 h treatment. How it is done: (§1) Madin-Darby Bovine Kidney Cells (MDBK) (American Type Culture Collection (ATCC) No. CCL-22, Manassas, Va) were seeded into 96-well plates at a density of approximately 2×10^4 cells per well. The cell cultures were incubated for 3-24 hours to allow for attachment of cells to the culture plates prior to infection and addition of compounds. BVDV strain NADL (ATCC No. VR-534) plaque forming units (PFU) were added to each well to achieve a multiplicity of infection (MOI) ranging from about 1 or about 0.001, and allowed to remain in contact with the cultured cells for 1 to 2 hours. The virus was then removed and the cells were washed with growth medium (e.g., Dulbecco's Modified Eagles Medium (DMEM)) containing 5% horse serum (HS), or with phosphate buffered saline (PBS), 1% HS, and 1 mM MgCl2. The test compounds, dissolved in cell growth media with 2% HS, were then added to the BVDV-infected cells or uninfected cells (cytotoxicity determination) at various concentrations. The plates were incubated at 37° C., 5% CO2 for 24 hours (i.e., about one cycle of BVDV replication). The plates were then centrifuged at low speed and the supernatant was serially diluted for use in infecting a new monolayer of cells in 12-well plates. […] The virus plaques formed in MDBK cell cultures were quantified by a manual count and a titer was determined.

A further data set concerns MDBK cells. Description: Cytotoxicity in uninfected MDBK cells after 24 h treatment (OD490). The settings on record: untreated control OD490 1.2. It is filed as cell-based, bovine. The method, then:
as §1

Assay in data set [6]: as above
The settings on record: bovine, compared to control, read-out: % Cytotoxicity of Compound 20 (1 μM). It is filed as cell-based, bovine. The method, then:
as §1

The mark [7] stands for this setting: MOI = 0.05, 3-4 days, read-out: EC50.
The mark [8] stands for this setting: MOI of 0.01, monotherapy run in parallel to combination studies, read-out: EC50 (monotherapy).

Consider `C[C@]12CC[C@@H]3c4cc(C56CC7CC(CC(C7)C5)C6)c(O)cc4CC[C@H]3[C@@H]1CC/C2=N\N` [Compound 4], for which, in the data set “in vitro [1]”, the CC50 was 34.5 ± 23.2 µM. The compound also gave a CC50 at 3 days in data set [2] of 24 µM. In addition, the EC50 in the data set with BVDV-NADL (setting [7]) stood at 3.99 ± 0.99 µM. For the same compound, in data set [3], the “SI (Selectivity Index)” value turned out to be 353 and the EC50 came out at 0.068 µM.

In the case of `CCCC(=O)O[C@H]1CN2CC[C@H](O)[C@@H]2[C@@H](O)[C@@H]1O` [Celgosivir, [1S-(1α,6β,7α,8β,8αβ)]-octahydro-1,6,7,8-indolizinetetrol 6-butanoate, reference compound], the EC50 in the data set on BVDV-NADL (setting [8]) was 2.2 µM.

Usually inhibition stands for the change of the read-out against control, counted positive when it falls. Take `C[C@]12CC[C@@H]3c4ccc(OS(=O)(=O)O)cc4CC[C@H]3[C@@H]1CC[C@H]2O` [Compound 16, 17(α)-estradiol-3-sulfate sodium]: the CC50 at 3 days in data set [2] is more than 100 µM. Also, in the data set with HIV-1RF, the EC50 is more than 300 µM. Besides, the inhibition at 300 µM in the data set with HIV-1RF (read-out: inhibition of HIV-1 induced cytotoxicity in CEM-SS cells) was 20%. Also, the CC50 in “in vitro [4]” (CEM-SS cells) is more than 300 µM. Moreover, in data set [3], the “SI (Selectivity Index)” value is more than 196 and the EC50 was determined as 0.51 µM. In addition, the “cytotoxicity shown by the compound” value in the data set with CEM-SS cells is reported as “no cytotoxicity”.

For the compound `C[C@@]1(O)[C@H](O)[C@@H](CO)O[C@H]1n1ccc(N)nc1=O` [NM107, 2′-C-methyl cytidine, reference compound], in the data set on BVDV-NADL (setting [8]), the EC50 is 0.99 µM.

On to `CO/N=C1\CC[C@H]2[C@@H]3CCc4cc(O)c(C56CC7CC(CC(C7)C5)C6)cc4[C@H]3CC[C@]12C` [Compound 5], for which the EC50 in the data set with HIV-1RF came to 5.8 µM. In addition, the CC50 in the data set “in vitro [4]” turned out to be 17.3 µM.

Regarding `C[C@]12CCC3c4cc(C56CC7CC(CC(C7)C5)C6)c(O)cc4CCC3C1CCC2=O` (stereo partly shown) [Compound 2], the EC50 in the data set with HIV-1RF was 19.7 µM; with BVDV-NADL (setting [8]), 0.23 µM. The compound further displayed a CC50 in the data set “in vitro [4]” of more than 100 µM.

Take `C[C@]12CC[C@@H]3c4cc(C56CC7CC(CC(C7)C5)C6)c(O)cc4CC[C@H]3[C@@H]1CC[C@@H]2O` [Compound 20, 17(β)-2-(1-adamantyl)-estra-1,3,5(10)-triene-3,17-diol]: the CC50 came to 40.1 ± 25.1 µM in “in vitro [1]” and 14.3 µM in “in vitro [4]”. Moreover, in [2], the CC50 at 3 days came to 8.1 µM. For the same compound, the EC50 in the data set on HIV-1RF stood at 8.6 µM; with BVDV-NADL (MOI 0.01, read-out: EC50) it was 0.34 ± 0.02 µM; with BVDV-NADL (MOI 0.02, read-out: EC50) it was 0.51 µM; in the data set with BVDV-NADL (MOI 0.03, read-out: EC50), 0.46 µM; in the data set on BVDV-NADL (setting [7]), 0.8 ± 0.22 µM; in data set [3] it was 0.043 µM. Moreover, in data set [5], the EC50 was approximately 0.15 µM. Further, the “SI (Selectivity Index)” value in data set [3] came to 188. The “Viral titer in presence of 1 μM of Compound 20” value with BVDV strain NADL (untreated control 7.0 × 10^5 PFU/mL) is 2.2 × 10^5 PFU/mL. In the data set with BVDV strain NADL (Bovine viral diarrhea virus isolates and strains, MDBK, compared to control, read-out: % Inhibition of Viral Release by Compound 20 at 1 μM), the inhibition at 1 µM turned out to be 69%. For the same compound, in the data set with MDBK cells, the “OD490 - 1 μM Compound 20” value amounted to 1.2. Moreover, in data set [6], the cytotoxicity at 24 h, 1 µM is 0%.
